US20260297081A1, “COMPOUNDS AND METHODS OF TREATING CANCERS” (Cullgen Inc., priority 2023, published 2026)

Biological target: CDK4 (Homo sapiens, UniProt P11802+Q16531)
Assay: CDK4 percentage degradation in Calu-1 cells (Table 6)
Type: cell-based
Parameters: Cells that express cyclin D1-3 and CDK4/6 proteins were treated with heterobifunctional compounds; endogenous in cells; host or cells: Calu-1
Conditions: 16 hours; for inhibition at 0.04 µM: 40 nM; for inhibition at 0.2 µM: 200 nM
How it was run: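 Calu-1 cells exposed to heterobifunctional compounds at 40 nM or 200 nM for 16 h. Cyclin D1 and CDK4 levels measured by Western blot of RIPA lysates (BCA-normalised loading), bands quantified by densitometry and expressed as percentage degradation.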

Chain of CDK4 (P11802 2-303 limits assumed): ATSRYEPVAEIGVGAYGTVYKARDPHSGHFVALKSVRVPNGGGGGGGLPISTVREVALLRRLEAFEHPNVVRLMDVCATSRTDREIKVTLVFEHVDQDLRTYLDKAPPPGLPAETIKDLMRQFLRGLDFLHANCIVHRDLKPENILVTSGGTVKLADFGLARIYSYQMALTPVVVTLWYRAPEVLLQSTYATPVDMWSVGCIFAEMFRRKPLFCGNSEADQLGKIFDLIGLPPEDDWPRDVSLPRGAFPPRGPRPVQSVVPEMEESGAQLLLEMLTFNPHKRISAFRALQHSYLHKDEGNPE
Chain of CDK4 (P24385 whole entry partner): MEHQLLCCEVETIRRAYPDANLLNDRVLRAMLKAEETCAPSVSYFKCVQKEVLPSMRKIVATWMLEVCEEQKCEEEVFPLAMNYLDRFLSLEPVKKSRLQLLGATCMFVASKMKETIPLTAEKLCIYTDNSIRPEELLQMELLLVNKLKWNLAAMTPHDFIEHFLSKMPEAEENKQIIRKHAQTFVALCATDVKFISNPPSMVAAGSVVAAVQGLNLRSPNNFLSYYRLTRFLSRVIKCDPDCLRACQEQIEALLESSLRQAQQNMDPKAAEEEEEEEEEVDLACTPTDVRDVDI
Chain of CDK4 (Q16531 2-1140 limits assumed): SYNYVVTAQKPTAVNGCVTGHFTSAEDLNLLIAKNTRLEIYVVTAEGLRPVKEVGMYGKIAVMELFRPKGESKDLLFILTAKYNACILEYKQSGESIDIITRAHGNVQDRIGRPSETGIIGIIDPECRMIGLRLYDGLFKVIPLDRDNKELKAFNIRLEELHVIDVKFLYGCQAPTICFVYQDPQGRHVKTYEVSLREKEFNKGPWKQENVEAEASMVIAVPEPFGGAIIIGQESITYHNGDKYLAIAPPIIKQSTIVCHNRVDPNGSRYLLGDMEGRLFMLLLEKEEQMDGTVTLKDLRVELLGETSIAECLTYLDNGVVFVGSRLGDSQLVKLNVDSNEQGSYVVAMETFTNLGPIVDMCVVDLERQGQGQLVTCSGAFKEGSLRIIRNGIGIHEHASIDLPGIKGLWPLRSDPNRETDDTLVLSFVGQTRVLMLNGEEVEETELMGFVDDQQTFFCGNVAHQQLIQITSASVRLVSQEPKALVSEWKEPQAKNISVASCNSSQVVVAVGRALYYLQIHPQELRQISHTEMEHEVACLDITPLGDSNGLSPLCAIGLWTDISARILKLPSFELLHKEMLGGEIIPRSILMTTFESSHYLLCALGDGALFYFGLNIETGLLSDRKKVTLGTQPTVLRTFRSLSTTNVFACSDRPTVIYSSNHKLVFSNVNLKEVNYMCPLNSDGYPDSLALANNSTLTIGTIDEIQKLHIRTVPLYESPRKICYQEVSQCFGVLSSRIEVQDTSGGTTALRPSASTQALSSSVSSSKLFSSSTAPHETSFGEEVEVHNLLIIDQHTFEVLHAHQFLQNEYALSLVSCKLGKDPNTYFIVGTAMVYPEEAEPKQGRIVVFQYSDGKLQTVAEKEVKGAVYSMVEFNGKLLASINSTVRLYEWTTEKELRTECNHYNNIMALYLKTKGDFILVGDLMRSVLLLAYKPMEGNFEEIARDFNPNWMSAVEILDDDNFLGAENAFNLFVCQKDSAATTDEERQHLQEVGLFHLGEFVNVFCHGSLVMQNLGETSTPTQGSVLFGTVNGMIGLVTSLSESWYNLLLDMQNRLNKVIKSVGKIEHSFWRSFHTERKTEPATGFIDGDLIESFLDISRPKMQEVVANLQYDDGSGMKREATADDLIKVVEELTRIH

Row | inhibition at 0.04 µM | inhibition at 0.2 µM | Compound
1 | < 30% | 50 to 80% | CNc1ccc(C(=O)Nc2ccc(C)c(=O)[nH]2)c(NCCCCCNC(=O)CN2CCN(c3ccc(Nc4ncc5c(C)c(C(C)=O)c(=O)n(C6CCCC6)c5n4)nc3)CC2)n1 [CPD-123, 2-((5-(2-(4-(6-((6-Acetyl-8-cyclopentyl-5-methyl-7-oxo-7,8-dihydropyrido[2,3-d]pyrimidin-2-yl)amino)pyridin-3-yl)piperazin-1-yl)acetamido)pentyl)amino)-N-(5-methyl-6-oxo-1,6-dihydropyridin-2-yl)-6-(methylamino)nicotinamide]
2 | 30 to 50% | 30 to 50% | CCc1ccc(C(=O)Nc2cccc(C3CC3)n2)c(NC2CC3(CC(NC(=O)CN4CCN(c5ccc(Nc6ncc7c(C)c(C(C)=O)c(=O)n(C8CCCC8)c7n6)nc5)CC4)C3)C2)n1 (stereo not drawn) [CPD-124, 2-((6-(2-(4-(6-((6-Acetyl-8-cyclopentyl-5-methyl-7-oxo-7,8-dihydropyrido[2,3-d]pyrimidin-2-yl)amino)pyridin-3-yl)piperazin-1-yl)acetamido)spiro[3.3]heptan-2-yl)amino)-N-(6-cyclopropylpyridin-2-yl)-6-ethylnicotinamide]
3 | 30 to 50% | 30 to 50% | CNc1ccc(C(=O)Nc2ccc(OC)c(C3CC3)n2)c(NC2CC3(CC(NC(=O)CN4CCN(c5ccc(Nc6ncc7c(C)c(C(C)=O)c(=O)n(C8CCCC8)c7n6)nc5)CC4)C3)C2)n1 (stereo not drawn) [CPD-125, 2-((6-(2-(4-(6-((6-Acetyl-8-cyclopentyl-5-methyl-7-oxo-7,8-dihydropyrido[2,3-d]pyrimidin-2-yl)amino)pyridin-3-yl)piperazin-1-yl)acetamido)spiro[3.3]heptan-2-yl)amino)-N-(6-cyclopropyl-5-methoxypyridin-2-yl)-6-(methylamino)nicotinamide]
4 | < 30% | 50 to 80% | CNc1ccc(C(=O)Nc2cccc(C)n2)c(NC[C@H]2CC[C@H](NC(=O)CN3CCN(c4ccc(Nc5ncc6c(C)c(C(C)=O)c(=O)n(C7CCCC7)c6n5)nc4)CC3)CC2)n1 [CPD-126, 2-(((trans-4-(2-(4-(6-((6-Acetyl-8-cyclopentyl-5-methyl-7-oxo-7,8-dihydropyrido[2,3-d]pyrimidin-2-yl)amino)pyridin-3-yl)piperazin-1-yl)acetamido)cyclohexyl)methyl)amino)-6-(methylamino)-N-(6-methylpyridin-2-yl)nicotinamide]
5 | < 30% | < 30% | CNc1ccc(C(=O)Nc2cc(C(F)(F)F)n(C)n2)c(NC2CC3(CC(NC(=O)CN4CCN(c5ccc(Nc6ncc7c(C)c(C(C)=O)c(=O)n(C8CCCC8)c7n6)nc5)CC4)C3)C2)n1 (stereo not drawn) [CPD-127, 2-((6-(2-(4-(6-((6-Acetyl-8-cyclopentyl-5-methyl-7-oxo-7,8-dihydropyrido[2,3-d]pyrimidin-2-yl)amino)pyridin-3-yl)piperazin-1-yl)acetamido)spiro[3.3]heptan-2-yl)amino)-N-(1-methyl-5-(trifluoromethyl)-1H-pyrazol-3-yl)-6-(methylamino)nicotinamide]
6 | 50 to 80% | 50 to 80% | CNc1ccc(C(=O)Nc2ccc(F)c(C3CC3)n2)c(NC2CC3(CC(NC(=O)CN4CCN(c5ccc(Nc6ncc7c(C)c(C(C)=O)c(=O)n(C8CCCC8)c7n6)nc5)CC4)C3)C2)n1 (stereo not drawn) [CPD-128, 2-((6-(2-(4-(6-((6-Acetyl-8-cyclopentyl-5-methyl-7-oxo-7,8-dihydropyrido[2,3-d]pyrimidin-2-yl)amino)pyridin-3-yl)piperazin-1-yl)acetamido)spiro[3.3]heptan-2-yl)amino)-N-(6-cyclopropyl-5-fluoropyridin-2-yl)-6-(methylamino)nicotinamide]
7 | 50 to 80% | 50 to 80% | CNc1ccc(C(=O)Nc2ccc(N(C)C)nn2)c(NC2CCC(NC(=O)CN3CCN(c4ccc(Nc5ncc6c(C)c(C(C)=O)c(=O)n(C7CCCC7)c6n5)nc4)CC3)CC2)n1 (stereo not drawn) [CPD-130, 2-((4-(2-(4-(6-((6-Acetyl-8-cyclopentyl-5-methyl-7-oxo-7,8-dihydropyrido[2,3-d]pyrimidin-2-yl)amino)pyridin-3-yl)piperazin-1-yl)acetamido)cyclohexyl)amino)-N-(6-(dimethylamino)pyridazin-3-yl)-6-(methylamino)nicotinamide]
8 | < 30% | 50 to 80% | CNc1ccc(C(=O)Nc2cc(C)n(C)n2)c(NC[C@H]2CC[C@H](NC(=O)CN3CCN(c4ccc(Nc5ncc6c(C)c(C(C)=O)c(=O)n(C7CCCC7)c6n5)nc4)CC3)CC2)n1 [CPD-131, 2-(((trans-4-(2-(4-(6-((6-Acetyl-8-cyclopentyl-5-methyl-7-oxo-7,8-dihydropyrido[2,3-d]pyrimidin-2-yl)amino)pyridin-3-yl)piperazin-1-yl)acetamido)cyclohexyl)methyl)amino)-N-(1,5-dimethyl-1H-pyrazol-3-yl)-6-(methylamino)nicotinamide]
9 | < 30% | 50 to 80% | CNc1ccc(C(=O)Nc2ccc(C#N)c(C3CC3)n2)c(NC2CC3(CC(NC(=O)CN4CCN(c5ccc(Nc6ncc7c(C)c(C(C)=O)c(=O)n(C8CCCC8)c7n6)nc5)CC4)C3)C2)n1 (stereo not drawn) [CPD-132, 2-((6-(2-(4-(6-((6-Acetyl-8-cyclopentyl-5-methyl-7-oxo-7,8-dihydropyrido[2,3-d]pyrimidin-2-yl)amino)pyridin-3-yl)piperazin-1-yl)acetamido)spiro[3.3]heptan-2-yl)amino)-N-(5-cyano-6-cyclopropylpyridin-2-yl)-6-(methylamino)nicotinamide]
10 | 30 to 50% | 50 to 80% | CNc1ccc(C(=O)Nc2ccc(N(C)C)nn2)c(NC2CC3(C2)CN(C(=O)N2CCN(c4ccc(Nc5ncc6c(C)c(C(C)=O)c(=O)n(C7CCCC7)c6n5)nc4)CC2)C3)n1 [CPD-133, 2-((2-(4-(6-((6-Acetyl-8-cyclopentyl-5-methyl-7-oxo-7,8-dihydropyrido[2,3-d]pyrimidin-2-yl)amino)pyridin-3-yl)piperazine-1-carbonyl)-2-azaspiro[3.3]heptan-6-yl)amino)-N-(6-(dimethylamino)pyridazin-3-yl)-6-(methylamino)nicotinamide]
11 | < 30% | 30 to 50% | CNc1ccc(C(=O)Nc2ccc(N(C)C)nn2)c(NC2CC3(CC(NC(=O)N4CCN(c5ccc(Nc6ncc7c(C)c(C(C)=O)c(=O)n(C8CCCC8)c7n6)nc5)CC4)C3)C2)n1 (stereo not drawn) [CPD-134, 4-(6-((6-Acetyl-8-cyclopentyl-5-methyl-7-oxo-7,8-dihydropyrido[2,3-d]pyrimidin-2-yl)amino)pyridin-3-yl)-N-(6-((3-((6-(dimethylamino)pyridazin-3-yl)carbamoyl)-6-(methylamino)pyridin-2-yl)amino)spiro[3.3]heptan-2-yl)piperazine-1-carboxamide]
12 | 30 to 50% | 30 to 50% | CNc1ccc(C(=O)Nc2ccccn2)c(NC2CC3(CC(NC(=O)CN4CCN(c5ccc(Nc6ncc7c(C)c(C(C)=O)c(=O)n(C8CCCC8)c7n6)nc5)CC4)C3)C2)n1 (stereo not drawn) [CPD-137, 2-((6-(2-(4-(6-((6-Acetyl-8-cyclopentyl-5-methyl-7-oxo-7,8-dihydropyrido[2,3-d]pyrimidin-2-yl)amino)pyridin-3-yl)piperazin-1-yl)acetamido)spiro[3.3]heptan-2-yl)amino)-6-(methylamino)-N-(pyridin-2-yl)nicotinamide]
13 | < 30% | 30 to 50% | CC(=O)c1c(C)c2cnc(Nc3ccc(N4CCN(CC(=O)NC5CC6(C5)CC(Nc5nc(C7CC7)ccc5C(=O)Nc5cccc(C7CC7)n5)C6)CC4)cn3)nc2n(C2CCCC2)c1=O (stereo not drawn) [CPD-138, 2-((6-(2-(4-(6-((6-Acetyl-8-cyclopentyl-5-methyl-7-oxo-7,8-dihydropyrido[2,3-d]pyrimidin-2-yl)amino)pyridin-3-yl)piperazin-1-yl)acetamido)spiro[3.3]heptan-2-yl)amino)-6-cyclopropyl-N-(6-cyclopropylpyridin-2-yl)nicotinamide]
14 | < 30% | 50 to 80% | CNc1ccc(C(=O)Nc2ccc(N(C)C)nn2)c(NC2CC3(C2)CC(C(=O)N2CCN(c4ccc(Nc5ncc6c(C)c(C(C)=O)c(=O)n(C7CCCC7)c6n5)nc4)CC2)C3)n1 (stereo not drawn) [CPD-140, 2-((6-(4-(6-((6-Acetyl-8-cyclopentyl-5-methyl-7-oxo-7,8-dihydropyrido[2,3-d]pyrimidin-2-yl)amino)pyridin-3-yl)piperazine-1-carbonyl)spiro[3.3]heptan-2-yl)amino)-N-(6-(dimethylamino)pyridazin-3-yl)-6-(methylamino)nicotinamide]
15 | < 30% | < 30% | CC(=O)c1c(C)c2cnc(Nc3ccc(N4CCN(CC(=O)NC5CC6(C5)CC(Nc5nc(C#N)ccc5C(=O)Nc5cccc(C7CC7)n5)C6)CC4)cn3)nc2n(C2CCCC2)c1=O (stereo not drawn) [CPD-141, 2-((6-(2-(4-(6-((6-Acetyl-8-cyclopentyl-5-methyl-7-oxo-7,8-dihydropyrido[2,3-d]pyrimidin-2-yl)amino)pyridin-3-yl)piperazin-1-yl)acetamido)spiro[3.3]heptan-2-yl)amino)-6-cyano-N-(6-cyclopropylpyridin-2-yl)nicotinamide]
16 | < 30% | – | CC(=O)c1c(C)c2cnc(Nc3ccc(N4CCN(CC(=O)NCCCCCCCNc5nc(-c6ccc(C#N)nc6)ccc5C(=O)Nc5nc(C)c(C)s5)CC4)cn3)nc2n(C2CCCC2)c1=O [CPD-142]
17 | < 30% | 50 to 80% | CNc1ccc(C(=O)Nc2ccc(N(C)C)nn2)c(NCC2CCN(C(=O)CN3CCN(c4ccc(Nc5ncc6c(C)c(C(C)=O)c(=O)n(C7CCCC7)c6n5)nc4)CC3)CC2)n1 [CPD-145, 2-(((1-(2-(4-(6-((6-acetyl-8-cyclopentyl-5-methyl-7-oxo-7,8-dihydropyrido[2,3-d]pyrimidin-2-yl)amino)pyridin-3-yl)piperazin-1-yl)acetyl)piperidin-4-yl)methyl)amino)-N-(6-(dimethylamino)pyridazin-3-yl)-6-(methylamino)nicotinamide]
